This note sets out measurements from patent US4736067A, “New dimethyl derivatives of 3-nitro-4-aminoaniline, process for their preparation and their use for dyeing keratinic fibers” (L'Oreal, priority 1983, dated 1988).

The nature of data set [1]: Stability / storage of the nitro colorant in (oxidation) dyeing composition or reducing alkaline medium. As to conditions: oxidation dye composition with ammonia and sodium bisulphite (Examples 26, 27). It counts as physicochemical.

Take `Cc1c(NCCN)cc([N+](=O)[O-])c(N)c1C` [4-amino-5,6-dimethyl-3-nitro-N-β-aminoethylaniline]: the harmlessness result in “Harmlessness / toxicity” is recorded as “particularly harmless”.

On to `CNc1c(C)cc(N)c([N+](=O)[O-])c1C` [4-amino-2,6-dimethyl-3-nitro-N-methylaniline], for which the harmlessness result in the data set “Harmlessness / toxicity” is listed as “particularly harmless”. Still for that read-out and setting: for `Cc1c(NCC(O)CO)cc([N+](=O)[O-])c(N)c1C` (stereo not drawn) [4-amino-5,6-dimethyl-3-nitro-N-β,γ-dihydroxypropylaniline] the value was “particularly harmless”; for `Cc1c(NCCO)cc([N+](=O)[O-])c(N)c1C` [4-amino-5,6-dimethyl-3-nitro-N-β-hydroxyethylaniline], “particularly harmless”; for `CCN(CC)CCNc1cc([N+](=O)[O-])c(N)c(C)c1C` [4-amino-5,6-dimethyl-3-nitro-N-(β-diethylaminoethyl)aniline], “particularly harmless”. Consider `Cc1cc(N)c([N+](=O)[O-])c(C)c1N` [2,6-dimethyl-3-nitroparaphenylenediamine], for which, in data set [1], the “stability of the nitro colorant in the liquid composition” value was “preserved”. The harmlessness result in “Harmlessness / toxicity” is “particularly harmless”. `Cc1c(N)cc([N+](=O)[O-])c(N)c1C` [5,6-dimethyl-3-nitroparaphenylenediamine]: the “stability of the nitro colorant in the liquid composition” value in data set [1] is listed as “stable in the liquid composition”. For the same compound, the harmlessness result in the data set “Harmlessness / toxicity” is reported as “particularly harmless”.
